Tests used:
KDHba = format: biochemical, Burkholderia ambifaria; details: aldehyde oxidation
PadA = molecular target: T1, PadA (Escherichia coli, UniProt P80668); assay: in vitro enzyme kinetics; format: biochemical; details: aldehyde oxidation
T1 sequence (P80668 1-499): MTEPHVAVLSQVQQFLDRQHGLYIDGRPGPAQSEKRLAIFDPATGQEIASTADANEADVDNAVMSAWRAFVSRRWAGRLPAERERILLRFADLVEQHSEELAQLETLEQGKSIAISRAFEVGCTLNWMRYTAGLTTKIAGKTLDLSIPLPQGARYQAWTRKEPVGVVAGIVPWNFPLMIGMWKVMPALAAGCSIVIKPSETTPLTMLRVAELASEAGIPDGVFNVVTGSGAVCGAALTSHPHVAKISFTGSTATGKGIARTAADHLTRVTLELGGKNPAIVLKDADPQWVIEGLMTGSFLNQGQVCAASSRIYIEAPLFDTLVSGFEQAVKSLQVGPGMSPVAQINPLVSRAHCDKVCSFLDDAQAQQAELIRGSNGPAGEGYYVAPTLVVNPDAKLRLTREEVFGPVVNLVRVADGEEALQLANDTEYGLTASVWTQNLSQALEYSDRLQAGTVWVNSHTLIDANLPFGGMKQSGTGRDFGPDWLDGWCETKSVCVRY

`CC(C)CCC=O` [isohexanal] gave a Km (KDHba) of 520 µM.

Molecule `CC(C)CC=O` [isopentanal] has a Km (PadA) of 1950 µM.

Molecule `CC(C)C=O` [isobutanal] has a Km (KDHba) of 34500 µM.

— publication PMC3301443 (Scientific Reports, 2012)
